Measured values published in the NIST ThermoML archive (doi:10.1016/j.jct.2014.02.021).
Where “and” joins values, the source holds several entries; their conditions need not be identical. Equal entries are not always repeated. Numbers after ± are expanded uncertainties.

Tests used:
[1] = 298.15 K; 101 kPa; Liquid; Vibrating tube method
[2] = xn = mol fraction of the nth substance listed; details: 298.15 K, 101 kPa, Liquid, Vibrating tube method

CC#N [acetonitrile]
Details | mass density [kg/m3]
[1] | 776.615 ± 1

CC1COC(=O)O1 (configuration not stated) [4-methyl-1,3-dioxolan-2-one]
Details | mass density [kg/m3]
[1] | 1199.49 ± 1

CO [methanol] + CC1COC(=O)O1
Details | mass density [kg/m3]
[2], x2 = 0 | 786.58 ± 1

CO [methanol]
Details | mass density [kg/m3]
[1] | 786.58 ± 1

CO [methanol] + CC#N
Details | mass density [kg/m3]
[2], x2 = 0 | 786.58 ± 1

CN(C)C=O [dimethylformamide]
Details | mass density [kg/m3]
[1] | 943.974 ± 1

CO [methanol] + CN(C)C=O
Details | mass density [kg/m3]
[2], x2 = 0 | 786.58 ± 1

CC#N [acetonitrile] + CO
[2]
Details | mass density
x1 = 0.0992 | 787.14 ± 1 kg/m3
x1 = 0.1002 | 787.104 ± 1 kg/m3
x1 = 0.1075 | 787.149 ± 1 kg/m3
x1 = 0.197 | 786.692 ± 1 kg/m3
x1 = 0.1984 | 786.63 ± 1 kg/m3
x1 = 0.2008 | 786.647 ± 1 kg/m3
x1 = 0.4002 | 784.701 ± 1 kg/m3
x1 = 0.4004 | 784.66 ± 1 kg/m3
x1 = 0.4013 | 784.644 ± 1 kg/m3
x1 = 0.465 | 784.22 ± 1 kg/m3
x1 = 0.4653 | 784.25 ± 1 kg/m3
x1 = 0.5041 | 783.427 ± 1 kg/m3
x1 = 0.5042 | 783.347 ± 1 kg/m3
x1 = 0.5047 | 783.356 ± 1 kg/m3
x1 = 0.601 | 782.103 ± 1 kg/m3 and 782.009 ± 1 kg/m3
x1 = 0.6056 | 781.935 ± 1 kg/m3
x1 = 0.7992 | 779.248 ± 1 kg/m3
x1 = 0.8012 | 779.292 ± 1 kg/m3
x1 = 0.8067 | 779.242 ± 1 kg/m3
x1 = 0.9007 | 777.825 ± 1 kg/m3
x1 = 0.9044 | 777.935 ± 1 kg/m3
x1 = 0.9049 | 777.896 ± 1 kg/m3
x1 = 0.9358 | 777.391 ± 1 kg/m3
x1 = 0.9376 | 777.347 ± 1 kg/m3
x1 = 0.9382 | 777.385 ± 1 kg/m3
x1 = 1 | 776.615 ± 1 kg/m3

CC1COC(=O)O1 (configuration not stated) [4-methyl-1,3-dioxolan-2-one] + CO
[2]
Details | mass density [kg/m3]
x1 = 0.0484 | 828.25 ± 1
x1 = 0.0497 | 828.25 ± 1
x1 = 0.051 | 829.62 ± 1
x1 = 0.0987 | 871.34 ± 1.1
x1 = 0.0991 | 870.05 ± 1
x1 = 0.0999 | 869.111 ± 1.1
x1 = 0.1972 | 932.83 ± 1.1
x1 = 0.1991 | 936.46 ± 1.1
x1 = 0.2001 | 939.29 ± 1.1
x1 = 0.3942 | 1035.57 ± 1.1
x1 = 0.3998 | 1021.45 ± 20
x1 = 0.4001 | 1037.34 ± 1
x1 = 0.4998 | 1069.62 ± 1
x1 = 0.5022 | 1072.85 ± 1
x1 = 0.505 | 1072.84 ± 1
x1 = 0.598 | 1103.43 ± 1
x1 = 0.6017 | 1106.39 ± 1
x1 = 0.6049 | 1103.9 ± 1
x1 = 0.7939 | 1159.25 ± 1
x1 = 0.7979 | 1159.25 ± 1
x1 = 0.8009 | 1158.72 ± 1
x1 = 0.9 | 1179.23 ± 1
x1 = 0.9011 | 1179.68 ± 1
x1 = 0.9031 | 1179.23 ± 1
x1 = 1 | 1199.49 ± 1

CN(C)C=O [dimethylformamide] + CO
[2]
Details | mass density
x1 = 0.0496 | 803.451 ± 1 kg/m3
x1 = 0.0502 | 803.39 ± 1 kg/m3
x1 = 0.0511 | 803.056 ± 1 kg/m3
x1 = 0.0991 | 818.484 ± 1 kg/m3
x1 = 0.1021 | 818.46 ± 1 kg/m3
x1 = 0.1084 | 818.189 ± 1 kg/m3
x1 = 0.1981 | 843.566 ± 1 kg/m3
x1 = 0.1988 | 843.761 ± 1 kg/m3
x1 = 0.2004 | 843 ± 1 kg/m3
x1 = 0.4022 | 882.138 ± 1 kg/m3 and 881.976 ± 1 kg/m3
x1 = 0.4054 | 881.38 ± 1 kg/m3
x1 = 0.4986 | 896.174 ± 1 kg/m3
x1 = 0.5002 | 894.978 ± 1 kg/m3
x1 = 0.5013 | 896.278 ± 1 kg/m3
x1 = 0.5982 | 909.277 ± 1 kg/m3
x1 = 0.6008 | 908.588 ± 1 kg/m3
x1 = 0.6031 | 909.254 ± 1 kg/m3
x1 = 0.7998 | 928.355 ± 1 kg/m3
x1 = 0.8028 | 928.308 ± 1 kg/m3
x1 = 0.8054 | 928.317 ± 1 kg/m3
x1 = 0.8997 | 936.786 ± 1 kg/m3
x1 = 0.9033 | 936.655 ± 1 kg/m3
x1 = 0.9039 | 936.718 ± 1 kg/m3
x1 = 1 | 943.974 ± 1 kg/m3
